ChEMBL document CHEMBL5724914, “Linking interpersonal differences in gut microbiota composition and drug biotransformation activity” (2024)

Assay: (§1) The drug is tested on Z-030 corresponding to mouse gut metagenome with ENA study accession number: PRJEB37062 and ENA sample accession number: ERS12561829 for biotransformation under anaerobic condition. The drug concentrations were measured over 9 timepoints collected between 0 and 24 hours of incubation by liquid-chromatography-coupled mass spectrometry (LC–MS)
Settings: 2 µM
Also: call rule not given here.

Bacterial Biotransformation | SMILES
Compound NOT metabolized | O=C(NC(Cc1cc(=O)[nH]c2ccccc12)C(=O)O)c1ccc(Cl)cc1 (stereo not given) [REBAMIPIDE]
Compound NOT metabolized | CCOc1cc(CC(=O)N[C@@H](CC(C)C)c2ccccc2N2CCCCC2)ccc1C(=O)O [REPAGLINIDE]
Compound NOT metabolized | CC(N)C12CC3CC(CC(C3)C1)C2 (stereo not given) [RIMANTADINE]

Assay: as §1, with “Z-026” for “Z-030”, “to” for “to mouse gut”, “ERS12561825” for “ERS12561829”
Settings: 2 µM

Bacterial Biotransformation | SMILES
Compound NOT metabolized | O=C(NC(Cc1cc(=O)[nH]c2ccccc12)C(=O)O)c1ccc(Cl)cc1 (stereo not given) [REBAMIPIDE]
Compound NOT metabolized | CCOc1cc(CC(=O)N[C@@H](CC(C)C)c2ccccc2N2CCCCC2)ccc1C(=O)O [REPAGLINIDE]
Compound NOT metabolized | CC(N)C12CC3CC(CC(C3)C1)C2 (stereo not given) [RIMANTADINE]

Assay: as §1, with “Z-020” for “Z-030”, “rabbit” for “mouse”, “ERS12561819” for “ERS12561829”
Settings: 2 µM

Bacterial Biotransformation | SMILES
Compound NOT metabolized | O=C(NC(Cc1cc(=O)[nH]c2ccccc12)C(=O)O)c1ccc(Cl)cc1 (stereo not given) [REBAMIPIDE]
Compound metabolized | CCOc1cc(CC(=O)N[C@@H](CC(C)C)c2ccccc2N2CCCCC2)ccc1C(=O)O [REPAGLINIDE]
Compound NOT metabolized | CC(N)C12CC3CC(CC(C3)C1)C2 (stereo not given) [RIMANTADINE]

Assay: as §1, with “Z-008” for “Z-030”, “to” for “to mouse gut”, “ERS12561808” for “ERS12561829”
Settings: 2 µM

Bacterial Biotransformation | SMILES
Compound NOT metabolized | O=C(NC(Cc1cc(=O)[nH]c2ccccc12)C(=O)O)c1ccc(Cl)cc1 (stereo not given) [REBAMIPIDE]
Compound metabolized | CCOc1cc(CC(=O)N[C@@H](CC(C)C)c2ccccc2N2CCCCC2)ccc1C(=O)O [REPAGLINIDE]
Compound NOT metabolized | CC(N)C12CC3CC(CC(C3)C1)C2 (stereo not given) [RIMANTADINE]

Assay: as §1, with “Z-003” for “Z-030”, “pig” for “mouse”, “ERS12561803” for “ERS12561829”
Settings: 2 µM

Bacterial Biotransformation | SMILES
Compound NOT metabolized | O=C(NC(Cc1cc(=O)[nH]c2ccccc12)C(=O)O)c1ccc(Cl)cc1 (stereo not given) [REBAMIPIDE]
Compound metabolized | CCOc1cc(CC(=O)N[C@@H](CC(C)C)c2ccccc2N2CCCCC2)ccc1C(=O)O [REPAGLINIDE]
Compound NOT metabolized | CC(N)C12CC3CC(CC(C3)C1)C2 (stereo not given) [RIMANTADINE]

Assay: as §1, with “WLS-310” for “Z-030”, “human” for “mouse”, “ERS12561785” for “ERS12561829”
Settings: 2 µM

Bacterial Biotransformation | SMILES
Compound NOT metabolized | O=C(NC(Cc1cc(=O)[nH]c2ccccc12)C(=O)O)c1ccc(Cl)cc1 (stereo not given) [REBAMIPIDE]
Compound metabolized | CCOc1cc(CC(=O)N[C@@H](CC(C)C)c2ccccc2N2CCCCC2)ccc1C(=O)O [REPAGLINIDE]
Compound NOT metabolized | CC(N)C12CC3CC(CC(C3)C1)C2 (stereo not given) [RIMANTADINE]

Assay: as §1, with “WLS-220” for “Z-030”, “human” for “mouse”, “ERS12561769” for “ERS12561829”
Settings: 2 µM

Bacterial Biotransformation | SMILES
Compound NOT metabolized | O=C(NC(Cc1cc(=O)[nH]c2ccccc12)C(=O)O)c1ccc(Cl)cc1 (stereo not given) [REBAMIPIDE]
Compound metabolized | CCOc1cc(CC(=O)N[C@@H](CC(C)C)c2ccccc2N2CCCCC2)ccc1C(=O)O [REPAGLINIDE]
Compound NOT metabolized | CC(N)C12CC3CC(CC(C3)C1)C2 (stereo not given) [RIMANTADINE]

Assay: as §1, with “WLS-077” for “Z-030”, “human” for “mouse”, “ERS12561750” for “ERS12561829”
Settings: 2 µM

Bacterial Biotransformation | SMILES
Compound NOT metabolized | O=C(NC(Cc1cc(=O)[nH]c2ccccc12)C(=O)O)c1ccc(Cl)cc1 (stereo not given) [REBAMIPIDE]
Compound metabolized | CCOc1cc(CC(=O)N[C@@H](CC(C)C)c2ccccc2N2CCCCC2)ccc1C(=O)O [REPAGLINIDE]
Compound NOT metabolized | CC(N)C12CC3CC(CC(C3)C1)C2 (stereo not given) [RIMANTADINE]

Assay: as §1, with “WLS-007” for “Z-030”, “human” for “mouse”, “ERS12561742” for “ERS12561829”
Settings: 2 µM

Bacterial Biotransformation | SMILES
Compound NOT metabolized | O=C(NC(Cc1cc(=O)[nH]c2ccccc12)C(=O)O)c1ccc(Cl)cc1 (stereo not given) [REBAMIPIDE]
Compound metabolized | CCOc1cc(CC(=O)N[C@@H](CC(C)C)c2ccccc2N2CCCCC2)ccc1C(=O)O [REPAGLINIDE]
Compound NOT metabolized | CC(N)C12CC3CC(CC(C3)C1)C2 (stereo not given) [RIMANTADINE]

Settings: human gut metagenome, 24 h, 2 µM

Bacterial Biotransformation | SMILES
Compound metabolized | O=C(NC(Cc1cc(=O)[nH]c2ccccc12)C(=O)O)c1ccc(Cl)cc1 (stereo not given) [REBAMIPIDE]
Compound metabolized | CCOc1cc(CC(=O)N[C@@H](CC(C)C)c2ccccc2N2CCCCC2)ccc1C(=O)O [REPAGLINIDE]
Compound NOT metabolized | CC(N)C12CC3CC(CC(C3)C1)C2 (stereo not given) [RIMANTADINE]

Settings: human gut metagenome, 24 h, 2 µM
Remark: another data set of the same source

Bacterial Biotransformation | SMILES
Compound NOT metabolized | O=C(NC(Cc1cc(=O)[nH]c2ccccc12)C(=O)O)c1ccc(Cl)cc1 (stereo not given) [REBAMIPIDE]
Compound metabolized | CCOc1cc(CC(=O)N[C@@H](CC(C)C)c2ccccc2N2CCCCC2)ccc1C(=O)O [REPAGLINIDE]
Compound NOT metabolized | CC(N)C12CC3CC(CC(C3)C1)C2 (stereo not given) [RIMANTADINE]

Settings: human gut metagenome, 24 h, 2 µM
Remark: another data set of the same source

Bacterial Biotransformation | SMILES
Compound NOT metabolized | O=C(NC(Cc1cc(=O)[nH]c2ccccc12)C(=O)O)c1ccc(Cl)cc1 (stereo not given) [REBAMIPIDE]
Compound metabolized | CCOc1cc(CC(=O)N[C@@H](CC(C)C)c2ccccc2N2CCCCC2)ccc1C(=O)O [REPAGLINIDE]
Compound NOT metabolized | CC(N)C12CC3CC(CC(C3)C1)C2 (stereo not given) [RIMANTADINE]

Settings: human gut metagenome, 24 h, 2 µM
Remark: another data set of the same source

Bacterial Biotransformation | SMILES
Compound NOT metabolized | O=C(NC(Cc1cc(=O)[nH]c2ccccc12)C(=O)O)c1ccc(Cl)cc1 (stereo not given) [REBAMIPIDE]
Compound metabolized | CCOc1cc(CC(=O)N[C@@H](CC(C)C)c2ccccc2N2CCCCC2)ccc1C(=O)O [REPAGLINIDE]
Compound NOT metabolized | CC(N)C12CC3CC(CC(C3)C1)C2 (stereo not given) [RIMANTADINE]

Settings: human gut metagenome, 24 h, 2 µM
Remark: another data set of the same source

Bacterial Biotransformation | SMILES
Compound NOT metabolized | O=C(NC(Cc1cc(=O)[nH]c2ccccc12)C(=O)O)c1ccc(Cl)cc1 (stereo not given) [REBAMIPIDE]
Compound NOT metabolized | CCOc1cc(CC(=O)N[C@@H](CC(C)C)c2ccccc2N2CCCCC2)ccc1C(=O)O [REPAGLINIDE]
Compound NOT metabolized | CC(N)C12CC3CC(CC(C3)C1)C2 (stereo not given) [RIMANTADINE]

Settings: human gut metagenome, 24 h, 2 µM
Remark: another data set of the same source

Bacterial Biotransformation | SMILES
Compound NOT metabolized | O=C(NC(Cc1cc(=O)[nH]c2ccccc12)C(=O)O)c1ccc(Cl)cc1 (stereo not given) [REBAMIPIDE]
Compound metabolized | CCOc1cc(CC(=O)N[C@@H](CC(C)C)c2ccccc2N2CCCCC2)ccc1C(=O)O [REPAGLINIDE]
Compound NOT metabolized | CC(N)C12CC3CC(CC(C3)C1)C2 (stereo not given) [RIMANTADINE]

Settings: human gut metagenome, 24 h, 2 µM
Remark: another data set of the same source

Bacterial Biotransformation | SMILES
Compound NOT metabolized | O=C(NC(Cc1cc(=O)[nH]c2ccccc12)C(=O)O)c1ccc(Cl)cc1 (stereo not given) [REBAMIPIDE]
Compound metabolized | CCOc1cc(CC(=O)N[C@@H](CC(C)C)c2ccccc2N2CCCCC2)ccc1C(=O)O [REPAGLINIDE]
Compound NOT metabolized | CC(N)C12CC3CC(CC(C3)C1)C2 (stereo not given) [RIMANTADINE]

Settings: human gut metagenome, 24 h, 2 µM
Remark: another data set of the same source

Bacterial Biotransformation | SMILES
Compound NOT metabolized | O=C(NC(Cc1cc(=O)[nH]c2ccccc12)C(=O)O)c1ccc(Cl)cc1 (stereo not given) [REBAMIPIDE]
Compound metabolized | CCOc1cc(CC(=O)N[C@@H](CC(C)C)c2ccccc2N2CCCCC2)ccc1C(=O)O [REPAGLINIDE]
Compound NOT metabolized | CC(N)C12CC3CC(CC(C3)C1)C2 (stereo not given) [RIMANTADINE]

Settings: human gut metagenome, 24 h, 2 µM
Remark: another data set of the same source

Bacterial Biotransformation | SMILES
Compound NOT metabolized | O=C(NC(Cc1cc(=O)[nH]c2ccccc12)C(=O)O)c1ccc(Cl)cc1 (stereo not given) [REBAMIPIDE]
Compound metabolized | CCOc1cc(CC(=O)N[C@@H](CC(C)C)c2ccccc2N2CCCCC2)ccc1C(=O)O [REPAGLINIDE]
Compound NOT metabolized | CC(N)C12CC3CC(CC(C3)C1)C2 (stereo not given) [RIMANTADINE]

Settings: human gut metagenome, 24 h, 2 µM
Remark: another data set of the same source

Bacterial Biotransformation | SMILES
Compound NOT metabolized | O=C(NC(Cc1cc(=O)[nH]c2ccccc12)C(=O)O)c1ccc(Cl)cc1 (stereo not given) [REBAMIPIDE]
Compound NOT metabolized | CCOc1cc(CC(=O)N[C@@H](CC(C)C)c2ccccc2N2CCCCC2)ccc1C(=O)O [REPAGLINIDE]
Compound NOT metabolized | CC(N)C12CC3CC(CC(C3)C1)C2 (stereo not given) [RIMANTADINE]

Settings: human gut metagenome, 24 h, 2 µM
Remark: another data set of the same source

Bacterial Biotransformation | SMILES
Compound NOT metabolized | O=C(NC(Cc1cc(=O)[nH]c2ccccc12)C(=O)O)c1ccc(Cl)cc1 (stereo not given) [REBAMIPIDE]
Compound metabolized | CCOc1cc(CC(=O)N[C@@H](CC(C)C)c2ccccc2N2CCCCC2)ccc1C(=O)O [REPAGLINIDE]
Compound NOT metabolized | CC(N)C12CC3CC(CC(C3)C1)C2 (stereo not given) [RIMANTADINE]
